Source: US20230131339A1, “EPI-X4 BASED PEPTIDES AND DERIVATIVES THEREOF” (Universitaet Ulm, priority 2020, published 2023)
Where two headings read alike, the source gives them in different places. Where a SMILES comes first, the peptide text is derived from it. Where no end group is shown, it is not given here. Side-chain parts run from the residue outwards. [ ]: non-standard residue; d: D form. The star is where a group is joined. Palmitoyl = CCCCCCCCCCCCCCCC(=O)*; Myristoyl = CCCCCCCCCCCCCC(=O)*; Glu = glutamate linker

Assays:
[1] = Functional stability assay in human plasma; settings: human, plasma
Procedure: Fourth, the stability of peptides in human plasma and whole human blood was tested (FIG. 4). The functional stability of EPI-X4 (SEQ ID NO.: 1) derivatives was screened using a CXCR4 antibody-based screening approach. Peptides were diluted in full human plasma or blood (>99%) and the functional activity was then measured after either 2 hours or 8 hours and compared to a sample that was not incubated in plasma or blood.
In this test, the peptides were incubated in human plasma for a certain time period.
Stability assay. Whole blood was collected from healthy donors in EDTA tubes and directly used or subsequently centrifuged for 15 min at 2,500×g to obtain plasma. Plasma from 6 donors was pooled and stored in aliquots at −80° C. Compounds were 200-fold diluted in human plasma or whole human blood to reach final concentrations of 20 μM. The t=0 sample was immediately taken and stored at −80° C. Plasma/compound or blood/compound mixture was then transferred to 37° C. and shook at 350 rpm. At given time points samples were taken and stored at −80° C.°. For measuring the functional activity of the plasma/peptide samples, the mixtures were thawed and diluted in ice cold PBS. 12G5-APC antibody competition was then performed as described before. For blood/peptide functional stability, samples were thawed and centrifuged at 14,000 rpm to remove cells and debris. The supernatant was then diluted in PBS and 12G5-antibody competition assay was performed. After the 2 hours incubation, the cells were washed and 50 μl of 1-step-Fix/Lyse solution (Thermo Fisher #00-5333-54) was added for 15 minutes at room temperature. Afterwards cells were washed again and analyzed for bound antibody.

[2] = system: CXCL12 induced migration of T-cells; assay: Migration assay (transwell, Jurkat cells); type: cell-based
Procedure: For each peptide, three independent experiments were performed. The error bars refer to the standard deviation.
Migration assay. Migration assays were performed using 96-well transwell assay plates (Corning Incorporated, Kennebunk, Me., USA) with 5 μm polycarbonate filters. […] Next, 75 μL (0.5×10^5 cells) of Jurkat cells (in assay buffer), together with/without the compounds, were added into the upper chambers. After 4 h at 37° C. (5% CO2), 100 μL of the lower chambers were transferred to a fresh 96 V-well plate and analyzed with Cell-Titer-Glo® assay (Promega, Madison, Wis., USA). The percentage of migrated cells was calculated as described by Balabanian et al. (2005). In order to obtain the relative migration in %, the percentage of migrated cells were normalized to the CXCL12-only control.

[3] = system: CXCL12-induced AKT signaling; assay: ERK/AKT signaling assay in SupT1 cells: AKT phosphorylation; type: cell-based
Procedure: (§1) Third, the activity of the claimed EPI-X4 derivatives was tested by the effect on CXCL12/CXCR4-mediated ERK (Extracellular-signal Regulated Kinases) and AKT (a serine/threonine-protein kinase) signaling (FIG. 3). In that assay CXCR4 expressing cells are stimulated with the CXCR4 chemokine-ligand CXCL12, which subsequently leads to phosphorylation of ERK and AKT. Preincubation of cells with CXCR4-antagonists blocks those pathways. […] Two or three independent experiments were carried out in triplicates for each peptide in each assay. The error bars refer to the standard deviation.
(§2) ERK/AKT signaling assay. CXCL12 induced ERK and AKT phosphorylation was determined in SupT1 cells. For this, 100,000 cells were seeded per well in a 96-V well plate in 100 μl medium supplemented with 1% FCS. Cells were incubated for 2 hours at 37° C. before 5 μl of compounds were added. After 15 min incubation at 37° C. cells were stimulated by adding 5 μl CXCL12 diluted in PBS to reach a final concentration of 100 ng/ml. Cells were further incubated for 2 min before the reaction was stopped by adding 20 μl of 10% PFA. Cells were fixed for 15 min at 4° C. before PFA was removed and cells permeabilized by adding 100 μl ice cold methanol. After 15 min at 4° C. the methanol was removed, cells were washed and 30 μl primary antibody was added (phospho-p44/42 MAPK (Erk1) (Tyr204)/(Erk2) (Tyr187) (D1H6G) mouse mAb #5726; phosphor-Akt (Ser473) (193H12) rabbit mAb #4058 Cell Signaling) for 1 hour at 4° C. After the antibody was removed and cells were washed secondary antibody was added for 30 min. Cells were washed afterwards and subsequently analyzed by flow cytometry.

[4] = system: CXCL12-induced ERK signaling; assay: ERK/AKT signaling assay in SupT1 cells: ERK phosphorylation; type: cell-based
Procedure: as §1, §2

[5] = system: CXCR4-tropic X4-HIV-1 (NL4-3); type: cell-based
CXCR4 = target: T1, CXCR4 (Homo sapiens, UniProt P61073); assay: Antibody competition assay (12G5-assay) on SupT1 cells; type: binding
T1 construct: endogenous in cells; host or cells: SupT1 cells
Procedure: Second, the activity was tested by an antibody competition assay (FIG. 2). Values determined by the competition assay represent the potency of a compound to compete with an antibody that specifically binds to the binding pocket (ECL2) of CXCR4. […] To the right of the diagrams, an assignment of the curves to the tested peptides is explained. […] Three independent experiments were carried out for each peptide in each assay. The error bars refer to the standard deviation.
(§3) Antibody competition assay. Competition of compounds with antibody binding was performed on SupT1 cells. For that cells were washed in PBS containing 1% FCS and 50,000 cells were then seeded per well in a 96 V-well plate. Buffer was removed and plates were precooled at 4° C. Compounds were diluted in PBS and antibody (clone 12G5, APC labelled) was diluted in PBS containing 1% FCS. The antibody was used at a concentration closed to its determined Kd. 15 μl compounds were then added to the cells and 15 μl antibody immediately afterwards. Plates were incubated at 4° C. in the dark for 2 hours. Afterwards cells were washed twice with PBS containing 1% FCS and fixed with 2% PFA. Antibody binding was analyzed by flow cytometry (FACS CytoFLEX; Beckman Coulter®).

[6] = target: T2, CXC chemokine receptor type 4 (CXCR4) (human, UniProt P61073 1-352); assay: cell-based or functional assay
[7] = target: T2, CXC chemokine receptor type 4 (CXCR4); assay: 12G5-APC antibody competition on SupT1 cells, flow cytometry
Procedure: To the right of the diagrams, an assignment of the curves to the tested peptides is explained. […] Three independent experiments were carried out for each peptide in each assay. The error bars refer to the standard deviation.
as §3, with “Compounds were diluted in PBS and antibody (clone 12G5, APC labelled) was diluted in PBS containing 1% FCS.” left out

[8] = target: T3, CXC chemokine receptor type 4 (CXCR4) (human, UniProt P61073 1-352); assay: competition
T3 chain: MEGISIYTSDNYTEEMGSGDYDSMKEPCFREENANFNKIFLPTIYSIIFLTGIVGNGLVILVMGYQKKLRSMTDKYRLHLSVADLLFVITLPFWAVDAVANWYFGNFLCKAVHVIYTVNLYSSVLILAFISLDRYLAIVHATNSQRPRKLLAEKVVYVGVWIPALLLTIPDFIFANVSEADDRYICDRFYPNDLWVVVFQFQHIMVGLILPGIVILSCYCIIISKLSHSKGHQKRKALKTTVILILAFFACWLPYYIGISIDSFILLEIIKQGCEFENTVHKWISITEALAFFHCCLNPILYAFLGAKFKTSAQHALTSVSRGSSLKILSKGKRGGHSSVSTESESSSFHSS

CC[C@H](C)[C@H](N)C(=O)N[C@@H](CC(C)C)C(=O)N[C@@H](CCCNC(=N)N)C(=O)N[C@@H](Cc1c[nH]c2ccccc12)C(=O)N[C@@H](CO)C(=O)N[C@@H](CCCNC(=N)N)C(=O)N[C@@H](CCCCN)C(N)=O [JM #118, ILRWSRK-NH2] (H-ILRWSRK-NH2)
functional stability in human plasma (in words) [1]: rapidly inactivated in plasma
inhibition of CXCL12 induced migration of T-cells (in words) [2]: even more effective than the full-length peptide

ILRWSRK(Glu-Myr)LPCVS (ILRWSRK([Glu-Myristoyl])LPCVS) [JM #204]
remaining activity in plasma in vivo 4 hours post injection (mouse, in vivo, iv, 4 h): lost

CC[C@H](C)[C@H](N)C(=O)N[C@@H](CC(C)C)C(=O)N[C@@H](CCCNC(=N)N)C(=O)N[C@@H](Cc1c[nH]c2ccccc12)C(=O)N[C@@H](CO)C(=O)N[C@@H](CCCNC(=N)N)C(=O)N[C@@H](CCCCN)C(=O)N[C@@H](CCSC)C(=O)N1CCC[C@H]1C(=O)N[C@@H](CS)C(=O)N[C@@H](CC(C)C)C(=O)N[C@@H](CO)C(=O)O [JM #18] (H-ILRWSRKMPCLS-OH; C-terminus assumed)
reduction of CXCL12-induced AKT signaling ([3]; 0.1 μM): about 40%
reduction of CXCL12-induced AKT signaling ([3]; 1 μM): ~70%
reduction of CXCL12-induced ERK signaling ([4]; 0.1 μM): about 40%
reduction of CXCL12-induced ERK signaling ([4]; 1 μM): ~70%

CCCCCCCCCCCCCCCC(=O)NCCCC[C@H](NC(=O)[C@H](CCCNC(=N)N)NC(=O)[C@H](CO)NC(=O)[C@H](Cc1c[nH]c2ccccc12)NC(=O)[C@H](CCCNC(=N)N)NC(=O)[C@H](CCSC)NC(=O)[C@H](N)CC(C)C)C(N)=O [JM #180, d-LMRWSRK(Pal)-NH2] (H-[dL]MRWSRK(Palmitoyl)-NH2)
anti-HIV-1 activity (in words) [5]: strongly increased anti-HIV-1 activity
remaining activity in plasma in vivo 4 hours post injection (mice, i.v. tail vein, 4 hours post injection): 29%
remaining activity in plasma in vivo 8 hours post injection (mice, i.v. tail vein, 8 hours post injection): about 9%

SC037: PVP-coupled peptide JM #21, average molecular mass 20 kDa (ILRWSRKLPCVS; also: PVP-coupled, average 20 kDa)
anti-HIV-1 activity (in words) [5]: comparable activity as JM #21
antibody competition / binding to CXCR4 (in words) (CXCR4): comparable activity as JM #21

CCCCCCCCCCCCCCCC(=O)NCCCC[C@H](NC(=O)[C@H](CCCCN)NC(=O)[C@H](CO)NC(=O)[C@H](Cc1c[nH]c2ccccc12)NC(=O)[C@H](CCCNC(=N)N)NC(=O)[C@@H](NC(=O)[C@@H](N)[C@@H](C)CC)C(C)C)C(=O)N[C@H](C(=O)N1CCC[C@H]1C(=O)N[C@@H](CS)C(=O)N[C@H](C(=O)N[C@@H](CO)C(=O)O)C(C)C)C(C)C [JM #169, IVRWSKK(Pal)VPCVS] (H-IVRWSKK(Palmitoyl)VPCVS-OH; C-terminus assumed)
reduction of CXCL12-induced AKT signaling ([3]; 0.1 μM): 85%
reduction of CXCL12-induced AKT signaling ([3]; 1 μM): completely
reduction of CXCL12-induced ERK signaling ([4]; 0.1 μM): over 70%
reduction of CXCL12-induced ERK signaling ([4]; 1 μM): almost completely blocked

CCCCCCCCCCCCCCCC(=O)NCCCC[C@H](NC(=O)[C@H](CCCNC(=N)N)NC(=O)[C@H](CO)NC(=O)[C@H](Cc1c[nH]c2ccccc12)NC(=O)[C@H](CCCNC(=N)N)NC(=O)[C@H](CCSC)NC(=O)[C@H](N)CC(C)C)C(=O)N[C@@H](CCSC)C(=O)N1CCC[C@H]1C(N)=O [JM #178, d-LMRWSRK(Pal)MP-NH2] (H-[dL]MRWSRK(Palmitoyl)MP-NH2; N-terminus assumed)
anti-HIV-1 activity (in words) [5]: strongly increased anti-HIV-1 activity
IC50 (CXCR4): 2 nM

B1: JM#178 (peptide)
peptide: [dL]MRWSRK(Palmitoyl)MP-NH2
modifications: N-terminus assumed
SMILES: CCCCCCCCCCCCCCCC(=O)NCCCC[C@H](NC(=O)[C@H](CCCNC(=N)N)NC(=O)[C@H](CO)NC(=O)[C@H](Cc1c[nH]c2ccccc12)NC(=O)[C@H](CCCNC(=N)N)NC(=O)[C@H](CCSC)NC(=O)[C@H](N)CC(C)C)C(=O)N[C@@H](CCSC)C(=O)N1CCC[C@H]1C(N)=O
IC50, HIV inhibition assay [6]: 5 to 10 nM
fold more effective binding than EPI-X4 [7]: > 2000 fold
fold more effective than WSC02 [7]: ~300 fold

ILRWSRK([Glu-Palmitoyl])-NH2 [JM#192]
IC50 [8]: 4 nM

ILRWSRK(Ac)LPCVS [JM#200]
IC50, HIV inhibition assay [6]: 50 to 150 nM
IC50 [8]: 213 nM

B2: JM#167 (peptide)
peptide: IVRWSKK(Palmitoyl)VP-NH2
modifications: N-terminus assumed
SMILES: CCCCCCCCCCCCCCCC(=O)NCCCC[C@H](NC(=O)[C@H](CCCCN)NC(=O)[C@H](CO)NC(=O)[C@H](Cc1c[nH]c2ccccc12)NC(=O)[C@H](CCCNC(=N)N)NC(=O)[C@@H](NC(=O)[C@@H](N)[C@@H](C)CC)C(C)C)C(=O)N[C@H](C(=O)N1CCC[C@H]1C(N)=O)C(C)C
fold more effective binding than EPI-X4 [7]: > 2000 fold
fold more effective than WSC02 [7]: ~300 fold
